Laboratory results: patent US20110262977A1, “PROCESS FOR PRODUCTION OF OPTICALLY ACTIVE AMINE DERIVATIVE” (Daicel Chemical Industries, Ltd., priority 2008, published 2011)

Experiments:
[1] = tested on: imine reductase derived from Streptomyces sp. GF3546; assay: Substrate specificity of imine reductase: NADPH/NADH-dependent imine-reducing activity (decrease in absorbance at 340 nm); format: biochemical
Description: A reaction mixture containing the enzyme, 100 mM potassium phosphate buffer (pH 7.0), 0.2 mM NADPH, and 10 mM 2-methyl-1-pyrrolin was incubated at 30° C. The reaction mixture was assayed to determine the decrease in absorbance at 340 nm due to the decrease of NADPH. The amount of enzyme that catalyzes the decrease of 1 μmol of NADPH per minute was defined as 1 U.
(§1) The enzyme prepared as described in Example 4 was incubated with various imine compounds.

[2] = tested on: imine reductase derived from Streptomyces sp. GF3546; assay: Substrate specificity of imine reductase: NADP+-dependent amine-oxidizing activity (increase in absorbance at 340 nm); format: biochemical; details: oxidation, substrate 10 mM, coenzyme NADP+
Description: A reaction mixture containing 100 mM glycine/potassium chloride/potassium hydroxide buffer 10.5, 2.5 mM NADP^+, 10 mM (S)-2-methylpyrrolidine, and the enzyme was incubated at 30° C. The reaction mixture was assayed to determine the increase in absorbance at 340 nm due to the increase of NADPH. The amount of enzyme that catalyzes the increase of 1 μmol of NADPH per minute was defined as 1 U.
as §1

[3] = substrate 10 mM, coenzyme NADPH, activity of reducing 2-methyl-1-pyrroline taken as 100
[4] = first % column, activity of reducing 2-methyl-1-pyrroline taken as 100
[5] = second % column, (S)-2-methylpyrrolidine = 100.0

Row | SMILES | Relative activity [2, 4] [%] | Relative activity [2, 5] [%] | Relative activity [1, 3] [%] | also measured
1 | CC(=Nc1ccccc1)c1ccccc1 (mixture of isomers) [N-((E/Z)-N-(1-phenylethylidene)aniline] |  |  | 5.3 | 
2 | COc1cc2c(cc1OC)C(C)=NCC2 [1-Methyl-6,7-dimethoxy-3,4-dihydroisoquinoline] |  |  |  | Relative activity ([1]; substrate 0.05 mM, coenzyme NADPH, activity of reducing 2-methyl-1-pyrroline taken as 100): 8.9%
3 | CC1=NCCC1 [2-Methyl-1-pyrroline] |  |  | 100.0 | Relative activity ([1]; substrate 10 mM, coenzyme NADH, activity of reducing 2-methyl-1-pyrroline (NADPH) taken as 100): 0.0%
4 | C(=NCc1ccccc1)c1ccccc1 [N-Benzylidenebenzylamine] |  |  | 20.9 | 

Second part, led by results:

Row | Relative activity [2, 4] [%] | Relative activity [2, 5] [%] | SMILES | Relative activity [1, 3] [%] | also measured
5 | 7.7 | 17.4 | C[C@@H]1CCCN1 [(R)-2-Methylpyrrolidine] |  | 
6 | 44.1 | 100.0 | C[C@H]1CCCN1 [(S)-2-Methylpyrrolidine] |  | 
